Source: patent publication US12714681B2, “Packaged, sealed container system for stable storage of an oxygen sensitive pharmaceutical formulation” (Baxter International Inc., priority 2020, dated 2026)

Key:
various receptors = conditions: R-isomer compared with S-isomer; cited from earlier work
[1] = cited from earlier work
[2] = Exploration of parameters: stability of norepinephrine formulations in 0.9% sodium chloride pre and post terminal sterilization; format: physicochemical
Protocol: Formulation parameters, such as antioxidant concentration and solution pH, were evaluated. Lab-scale batches were prepared and filled into containers through cut corners (resealed). Containers were subsequently vacuum sealed into overpouches. All formulations were prepared in 0.9% sodium chloride. Oxygen levels were controlled by preparing samples within a glove box under N2 atmosphere. Replicates were tested pre and post sterilization. Runs were evaluated by O2 content (head space and solution), pH, concentration of analyte and related compounds, enantiomeric purity, amount of antioxidant, and “visual inspection.”
Nineteen formulations were prepared in accordance with the table above.

SMILES | affinity to various receptors / pharmaceutical activity (various receptors) | solubility in acidic solutions ([1]; acidic solutions) | solubility in alcohols and ethers ([1]; alcohols and ethers) | solubility in water ([1]; water) | rate of epimerization to the S-isomer ([2]; higher pH values) | rate of norepinephrine oxidation ([2]; lower pH values)
NC[C@H](O)c1ccc(O)c(O)c1 (single isomer, unassigned) [R-isomer] | higher affinity |  |  |  |  | 
NC[C@@H](O)c1ccc(O)c(O)c1 (single isomer, unassigned) [S-isomer] | negligible pharmaceutical activity |  |  |  |  | 
NC[C@H](O)c1ccc(O)c(O)c1 [norepinephrine] |  | readily soluble | slightly soluble | sparingly soluble | decreased the rate of epimerization to the S-isomer | decreased the rate of norepinephrine oxidation
